System: PARP PARylation in HeLa cells
Test: PARylation assay in HeLa cells
Type: cell-based
Details: H2O2-provoked DNA damage

10-(2-hydroxyethyl)-2,2-dimethyl-2,3,5,10-tetrahydro-[1,2]diazepino[3,4,5,6-def]carbazol-6(1H)-one [Compound 67]
EC50: 247 nM

Reference: patent publication US9617273B2, “Fused tetra or penta-cyclic dihydrodiazepinocarbazolones as PARP inhibitors” (BEIGENE, LTD., priority 2011, dated 2017)
